Source: patent US10537566B2, “Combinations comprising siponimod and laquinimod for the treatment of multiple sclerosis” (Novartis AG, priority 2014, dated 2020)
Read-outs that look alike come from different tables or passages of the source.

Legend:
[1] = test system: experimental autoimmune encephalomyelitis (EAE); experiment: MOG/CFA/Pertussis toxin-induced EAE, treatment initiated during ongoing CNS damage; format: in vivo, C57Bl/6 mice; conditions: 0.3 mg/kg siponimod, 10 mg/kg laquinimod or both, daily for 21 days after infiltration of immune cells into CNS; p<0.05
Description: (§1) Female C57Bl/6 mice were subcutaneously immunized with 200 μg recombinant MOG1-125 in CFA followed by one i.p. injection of 100 ng Pertussis toxin. Two days later an additional i.p. injection of 100 ng pertussis toxin was administered. Following infiltration of immune cells into the CNS to initiate tissue damage, the mice were randomized to either vehicle, 0.3 mg/kg siponimod, 10 mg/kg laquinimod or 0.3 mg/kg siponimod+10 mg/kg laquinimod and treated daily with said doses for 21 days.

RRMS [2] = conditions: phase III, oral 0.6 mg once daily over 24 months; cited from earlier work
[3] = test system: experimental autoimmune encephalomyelitis (EAE); experiment: MOG/CFA/Pertussis toxin-induced EAE, treatment initiated after severe CNS damage; format: in vivo, C57Bl/6 mice; conditions: 0.3 mg/kg siponimod, 10 mg/kg laquinimod or both, daily for 30 days, from three days after first clinical symptoms; p<0.05
Description: Female C57Bl/6 mice were subcutaneously immunized with 200 μg recombinant MOG1-125 in CFA followed by one i.p. injection of 100 ng Pertussis toxin. Two days later an additional i.p. injection of 100 ng pertussis toxin was administered. Three days after the first clinical symptoms, the mice were randomized to either vehicle, 0.3 mg/kg siponimod, 10 mg/kg laquinimod or 0.3 mg/kg siponimod+10 mg/kg laquinimod and treated daily with said doses for 30 days. Treatment initiated after severe CNSneurological disease and tissue damage has occurred. More specifically after that a severe CNS damage, which can be characterized by hind limb paralysis, had already occurred.

lymphocytes = experiment: Lymphocyte reduction in MOG/CFA/Pertussis toxin-immunized C57/Bl6 mice; format: in vivo, C57Bl/6 mice; conditions: 0.3 mg/kg siponimod, 10 mg/kg laquinimod or both, daily for 29 days, from three days after first clinical symptoms; p<0.05
Description: as §1, with “Three days after” for “Following infiltration of immune cells into”, “first clinical symptoms,” for “CNS to initiate tissue damage,”, “29” for “21”, “days. The MOG/CFA/Pertussis toxin-induced experimental autoimmune encephalomyelitis model in C57/Bl6 mice is described in Quancard et al (Chem Biol. 19(9):1142-51, 2012).” for “days.”

[4] = Level of siponimod in blood, brain and cerebrospinal fluid (CSF) in mice; format: in vivo; conditions: female, mouse, C57Bl/6 mice, mean (SEM)
Description: Female C57Bl/6 mice were treated daily with 3 mg/kg siponimod, p.o. for 8 days. 8 hours after the last administration, animals were sacrificed and the levels of siponimod were measured in blood, brain and CSF.
Shown are mean values of 3-5 animals and standard error of the mean (in brackets).

RRMS [5] = conditions: phase II, oral doses of 0.25 mg, 0.5 mg, 1.25 mg, 2 mg and 10 mg; cited from earlier work

Row | SMILES | daily disease severity / neurological paralysis / disease burden (FIG. 4) [1] | efficacy in treating RRMS (RRMS [2]) | disease burden (cumulative EAE score) (FIG. 2) [3] | effect on lymphocytes (FIG. 1) (lymphocytes) | concentration at 8 h ([4]; CSF, oral, EAE, 3 mg/kg qd, day 8, 8 h, read-out: conc siponimod (nM) (SEM) CSF) | concentration at 8 h ([4]; CSF, po, 3 mg/kg qd p.o., day 8, 8 h after last administration, read-out: conc siponimod (nM) (SEM) CSF) | concentration at 8 h ([4]; blood, oral, EAE, 3 mg/kg qd, day 8, 8 h, read-out: conc siponimod (nM) (SEM) Blood) | concentration at 8 h ([4]; blood, po, 3 mg/kg qd p.o., day 8, 8 h after last administration, read-out: conc siponimod (nM) (SEM) Blood) | concentration at 8 h ([4]; brain, oral, EAE, 3 mg/kg qd, day 8, 8 h, read-out: conc siponimod (nM) (SEM) Brain) | concentration at 8 h ([4]; brain, po, 3 mg/kg qd p.o., day 8, 8 h after last administration, read-out: conc siponimod (nM) (SEM) Brain) | efficacy in treating RRMS (RRMS [5])
1 | CCN(C(=O)c1c(O)c2c(Cl)cccc2n(C)c1=O)c1ccccc1 [laquinimod, 5-chloro-N-ethyl-4-hydroxy-1-methyl-2-oxo-N-phenyl-1,2-dihydroquinoline-3-carboxamide] | did not significantly improve daily disease severity | showed efficacy | did not significantly improve disease burden | did not significantly reduce lymphocytes |  |  |  |  |  |  | 
2 | CCc1cc(/C(C)=N/OCc2ccc(C3CCCCC3)c(C(F)(F)F)c2)ccc1CN1CC(C(=O)O)C1 [siponimod, 1-{4-[1-((E)-4-cyclohexyl-3-trifluoromethyl-benzyloxyimino)-ethyl]-2-ethyl-benzyl}-azetidine-3-carboxylic acid] | transiently reduced neurological paralysis |  | reduced disease burden | reduced lymphocytes | 17.7 nM | 7.2 nM | 1600 nM | 973 nM | 9190 nM | 5550 nM | dose-dependent efficacy
